From ChEMBL document CHEMBL3098121, “Dactyloditerpenol acetate, a new prenylbisabolane-type diterpene from Aplysia dactylomela with significant in vitro anti-neuroinflammatory activity” (Bioorg Med Chem Lett, 2014) come the findings set out here.

Values after ≈ are worked out from the molar mass of the structure shown.

The nature of experiment [1]: Antineuroinflammatory activity in rat brain neonatal microglia assessed as inhibition of LPS-induced superoxide anion generation. Format: functional, tissue-based.
Experiment [2] deals with Mycobacterium tuberculosis. Put plainly: Antimycobacterial activity against Mycobacterium tuberculosis H37Rv. Format: functional.
The next experiment relates to DU-145. The experiment can be described thus: Cytotoxicity against human DU145 cells. It counts as functional.
For another experiment, the system named is A2058. Put plainly: Cytotoxicity against human A2058 cells. Format: functional.
Experiment [3] can be described thus: Cytotoxicity against rat brain neonatal microglia by LDH release assay. In general terms: Release of lactate dehydrogenase indicates damage to the cell membrane.
Experiment [4] is described as follows: Antineuroinflammatory activity in rat brain neonatal microglia assessed as inhibition of LPS-induced TXB2 generation. It counts as functional, tissue-based.
The nature of experiment [5]: Antineuroinflammatory activity in rat brain neonatal microglia. Format: functional, tissue-based.

What is called IC50 is the midpoint of a concentration-inhibition curve. A word on the MIC: it is the least concentration at which growth counts as inhibited. `CC(=O)O[C@@H](CC[C@@H](C)[C@@H]1CCC(C)=C[C@H]1O)[C@](C)(O)CCC=C(C)C`: the IC50 is 1000 nM in experiment [1], greater than 10000 nM in experiment [3] and 400 nM in experiment [4]. Besides, 59.4 µg/mL (≈ 162 µM) was the least that counted as inhibitory in experiment [2] (MIC). Further, the Activity in the experiment on DU-145 was found to be 77%; with A2058 it was 67%.

`CC(=O)Oc1ccccc1C(=O)O` [ASPIRIN]: the IC50 in experiment [5] (read-out: IC50) is 3.2 nM.

As for `CC(C(=O)O)c1ccc(-c2ccccc2)c(F)c1` (stereo not drawn) [FLURBIPROFEN], in experiment [5] (read-out: IC50(app)), the IC50 worked out at 100 nM.
